Laboratory results taken from patent publication US5043349A, “Substituted pyrrole angiotensin II antagonists” (E. I. Du Pont de Nemours and Company, priority 1990, dated 1991).
Like-named read-outs stand apart in the source and are kept apart here.

How the values were obtained:
AII receptor = assay: Angiotensin II receptor binding (displacement of 3H-AII from rat adrenal cortical microsomes); details: 50% displacement of specifically bound 3H-AII (2 nM), 1 hour, room temperature
Experimental: The hormone angiotensin II (AII) produces numerous biological responses (e.g. vasoconstriction) through stimulation of its receptors on cell membranes. […] The reaction mixture contained rat adrenal cortical microsomes (source of AII receptor) in Tris buffer and 2 nM of ^3 H-AII with or without potential AII antagonist. This mixture was incubated for 1 hour at room temperature and the reaction was subsequently terminated by rapid filtration and rinsing through glass micro-fibre filter. Receptor-bound ^3 H-AII trapped in filter was quantitated by scintillation counting.

Renal Hypertensive Rats = assay: Antihypertensive effects in renal hypertensive rats (ligation of the left renal artery); assay type: in vivo; details: Rattus norvegicus
Experimental: This procedure increases blood pressure by increasing renin production with consequent elevation of AII levels. Compounds are administered orally and/or intravenously via a cannula in the jugular vein. Arterial blood pressure is continuously measured directly through a carotid artery cannula and recorded using a pressure transducer and a polygraph. Blood pressure levels after treatment are compared to pretreatment levels to determine the antihypertensive effects of the compounds (See Table 5).

arterial pressure = details: cited from earlier work
AII = details: cited from earlier work
[1] = iv, read-out: Antihypertensive Effects in Renal Hypertensive Rats, Intravenous Activity
[2] = po, read-out: Antihypertensive Effects in Renal Hypertensive Rats, Oral Activity

CCCCc1cn(Cc2ccc(-c3ccccc3C(=O)O)cc2)nn1 [Example 1, 4-Butyl-1-[(2'-carboxybiphenyl-4-yl)methyl]-1,2,3-triazole]
IC50 (AII receptor): 3000 nM
minimal effective dose (Renal Hypertensive Rats; [1]): > 100 mg/kg
minimal effective dose (Renal Hypertensive Rats; [2]): > 100 mg/kg

CCCCc1cnnn1Cc1ccc(-c2ccccc2C(=O)O)cc1 [Example 2]
IC50 (AII receptor): 1000 nM
minimal effective dose (Renal Hypertensive Rats; [1]): ≤ 10 mg/kg
minimal effective dose (Renal Hypertensive Rats; [2]): ≤ 100 mg/kg

CCCCc1cn(Cc2ccc(-c3ccccc3-c3nn[nH]n3)cc2)nn1 [Example 3, 4-Butyl-1-[2'-(1H-tetrazol-5-yl)-biphenyl-4-yl]methyl-1,2,3-triazoles]
IC50 (AII receptor): 6000 nM
minimal effective dose (Renal Hypertensive Rats; [1]): ≤ 10 mg/kg
minimal effective dose (Renal Hypertensive Rats; [2]): ≤ 100 mg/kg

CCCCc1cnnn1Cc1ccc(-c2ccccc2-c2nn[nH]n2)cc1 [Example 4]
IC50 (AII receptor): 300 nM
minimal effective dose (Renal Hypertensive Rats; [1]): ≤ 10 mg/kg
minimal effective dose (Renal Hypertensive Rats; [2]): ≤ 100 mg/kg

CCCCc1nnc(COC)n1Cc1ccc(-c2ccccc2C(=O)O)cc1 [Example 67, 3-Butyl-5-methoxymethyl-4-[(2'-carboxybiphenyl-4-yl)methyl]-1,2,4-triazole]
IC50 (AII receptor): 820 nM
minimal effective dose (Renal Hypertensive Rats; [1]): ≤ 10 mg/kg
minimal effective dose (Renal Hypertensive Rats; [2]): > 100 mg/kg

CCCCc1nncn1Cc1ccc(-c2ccccc2C(=O)O)cc1 [Example 68, 3-Butyl-4-[(2'-carboxybiphenyl-4-yl)methyl]-1,2,4-triazole]
IC50 (AII receptor): 1800 nM
minimal effective dose (Renal Hypertensive Rats; [1]): ≤ 10 mg/kg
minimal effective dose (Renal Hypertensive Rats; [2]): > 100 mg/kg

CCCc1nnc(COC)n1Cc1ccc(-c2ccccc2C(=O)O)cc1 [Example 69, 3-Methoxymethyl-5-propyl-4-[(2'-carboxybiphenyl-4-yl)methyl]-1,2,4-triazole]
IC50 (AII receptor): 730 nM
minimal effective dose (Renal Hypertensive Rats; [1]): ≤ 10 mg/kg
minimal effective dose (Renal Hypertensive Rats; [2]): > 100 mg/kg

CCc1nnc(COC)n1Cc1ccc(-c2ccccc2C(=O)O)cc1 [Example 70, 3-Ethyl-5-methoxymethyl-4-[(2'-carboxybiphenyl-4-yl)methyl]-1,2,4-triazole]
IC50 (AII receptor): 5000 nM
minimal effective dose (Renal Hypertensive Rats; [1]): ≤ 10 mg/kg
minimal effective dose (Renal Hypertensive Rats; [2]): > 100 mg/kg

CCCCc1nnc(CCCC)n1Cc1ccc(-c2ccccc2C(=O)O)cc1 [Example 71, 3,5-Dibutyl-4-[(2'-carboxybiphenyl-4-yl)methyl]-1,2,4-triazole]
IC50 (AII receptor): 820 nM
minimal effective dose (Renal Hypertensive Rats; [1]): ≤ 10 mg/kg
minimal effective dose (Renal Hypertensive Rats; [2]): > 100 mg/kg

CCCc1nnc(COC)n1Cc1ccc(-c2ccccc2-c2nnn[nH]2)cc1 [Example 72, 3-Methoxymethyl-5-propyl-4-[(2'-(1H-tetrazol-5-yl)biphenyl-4-yl)methyl]-1,2,4-triazole]
IC50 (AII receptor): 140 nM
minimal effective dose (Renal Hypertensive Rats; [1]): ≤ 10 mg/kg
minimal effective dose (Renal Hypertensive Rats; [2]): ≤ 100 mg/kg

CCCCc1cc(COC)n(Cc2ccc(-c3ccccc3C(=O)O)cc2)n1 [Example 170, 5-Methoxymethyl-3-butyl-1-[(2'-carboxybiphenyl-4-yl)methyl]pyrazole]
IC50 (AII receptor): 7300 nM
minimal effective dose (Renal Hypertensive Rats; [1]): ≤ 10 mg/kg
minimal effective dose (Renal Hypertensive Rats; [2]): > 100 mg/kg

CCCCc1cc(COC)nn1Cc1ccc(-c2ccccc2C(=O)O)cc1 [Example 171, 3-Methoxymethyl-5-butyl-1-[(2'-carboxybiphenyl-4-yl)methyl]pyrazole]
IC50 (AII receptor): 290 nM
minimal effective dose (Renal Hypertensive Rats; [1]): ≤ 10 mg/kg
minimal effective dose (Renal Hypertensive Rats; [2]): ≤ 100 mg/kg

C=CCCc1cc(COC)nn1Cc1ccc(-c2ccccc2C(=O)O)cc1 [Example 172, 3-Methoxymethyl-5-but-3-enyl-1-[(2'-carboxybiphenyl-4-yl)methyl]-pyrazole]
IC50 (AII receptor): 720 nM
minimal effective dose (Renal Hypertensive Rats; [1]): ≤ 10 mg/kg
minimal effective dose (Renal Hypertensive Rats; [2]): ≤ 100 mg/kg

CCCc1cc(COC)nn1Cc1ccc(-c2ccccc2C(=O)O)cc1 [Example 173, 3-Methoxymethyl-5-propyl-1-[(2'-carboxybiphenyl-4-yl)methyl]pyrazole]
IC50 (AII receptor): 6700 nM
minimal effective dose (Renal Hypertensive Rats; [1]): ≤ 10 mg/kg
minimal effective dose (Renal Hypertensive Rats; [2]): ≤ 100 mg/kg

CCCc1cc(COC)n(Cc2ccc(-c3ccccc3C(=O)O)cc2)n1 [Example 174]
IC50 (AII receptor): > 1000 nM
minimal effective dose (Renal Hypertensive Rats; [1]): ≤ 10 mg/kg
minimal effective dose (Renal Hypertensive Rats; [2]): > 100 mg/kg

CCCc1cc(C(=O)O)nn1Cc1ccc(-c2ccccc2C(=O)O)cc1 [Example 175, 3-Carboxy-5-propyl-1-[(2'-carboxybiphenyl-4-yl)methyl]pyrazole]
IC50 (AII receptor): 9500 nM
minimal effective dose (Renal Hypertensive Rats; [1]): ≤ 10 mg/kg

CCCc1cc(CO)nn1Cc1ccc(-c2ccccc2C(=O)O)cc1 [Example 176, 3-Hydroxymethyl-5-propyl-1-[(2'-carboxybiphenyl-4-yl)methyl]pyrazole]
IC50 (AII receptor): 2300 nM
minimal effective dose (Renal Hypertensive Rats; [1]): > 30 mg/kg
minimal effective dose (Renal Hypertensive Rats; [2]): > 30 mg/kg

CCCc1cc(CO)n(Cc2ccc(-c3ccccc3C(=O)O)cc2)n1 [Example 177, 5-Hydroxymethyl-3-propyl-1-[(2'-carboxybiphenyl-4-yl)methyl]pyrazole]
IC50 (AII receptor): > 3000 nM
minimal effective dose (Renal Hypertensive Rats; [1]): > 30 mg/kg
minimal effective dose (Renal Hypertensive Rats; [2]): > 30 mg/kg

CCCc1cc(C=O)nn1Cc1ccc(-c2ccccc2C(=O)O)cc1 [Example 178, 3-Formyl-5-propyl-1-[(2'-carboxybiphenyl-4-yl)methyl]pyrazole]
IC50 (AII receptor): 4100 nM
minimal effective dose (Renal Hypertensive Rats; [1]): ≤ 10 mg/kg
minimal effective dose (Renal Hypertensive Rats; [2]): ≤ 100 mg/kg

CCCc1cc(C=O)n(Cc2ccc(-c3ccccc3C(=O)O)cc2)n1 [Example 179, 5-Formyl-3-propyl-1-[(2'-carboxybiphenyl-4-yl)methyl]pyrazole]
IC50 (AII receptor): > 3000 nM
minimal effective dose (Renal Hypertensive Rats; [1]): > 30 mg/kg
minimal effective dose (Renal Hypertensive Rats; [2]): > 30 mg/kg

CCCc1ccc(C(=O)OCC)n1Cc1ccc(-c2ccccc2-c2nnn[nH]2)cc1 [Example 277, Ethyl 5-n-propyl-1-[2'-(1H-tetrazol-5-yl)biphenyl-4-yl-methyl]pyrrole-2-carboxylate]
IC50 (AII receptor): 1600 nM
minimal effective dose (Renal Hypertensive Rats; [1]): ≤ 10 mg/kg
minimal effective dose (Renal Hypertensive Rats; [2]): ≤ 100 mg/kg

CCCc1ccc(C(=O)OCC)n1Cc1ccc(-c2ccccc2C(=O)O)cc1 [Example 278, Ethyl 5-n-propyl-1-[(2'-carboxybiphenyl-4-yl)methyl]pyrrole-2-carboxylate]
IC50 (AII receptor): > 3000 nM
minimal effective dose (Renal Hypertensive Rats; [1]): > 30 mg/kg
minimal effective dose (Renal Hypertensive Rats; [2]): > 30 mg/kg

CCCc1ccc(C(=O)O)n1Cc1ccc(-c2ccccc2C(=O)O)cc1 [Example 279, 5-n-Propyl-1-[(2'-carboxybiphenyl-4-yl)methyl]-pyrrole-2-carboxylic acid]
IC50 (AII receptor): > 12000 nM
minimal effective dose (Renal Hypertensive Rats; [1]): ≤ 10 mg/kg
minimal effective dose (Renal Hypertensive Rats; [2]): ≤ 100 mg/kg

CNCC(=O)N[C@@H](CCCN=C(N)N)C(=O)N[C@H](C(=O)N[C@@H](Cc1ccc(O)cc1)C(=O)N[C@H](C(=O)N[C@@H](Cc1cnc[nH]1)C(=O)N1CCC[C@H]1C(=O)N[C@@H](C)C(=O)O)C(C)C)C(C)C [Saralasin, [Sar^1, Ala^8] AII]
effect when the pressure is not sustained by AII (arterial pressure; due to its agonistic character): generally elicits pressor effects
effect on arterial pressure when the (elevated) pressure is dependent on circulating AII (arterial pressure; mammals and man): lower arterial pressure in mammals and man
effect of oral doses (arterial pressure; oral): ineffective
duration of pharmacological effects (arterial pressure; parenteral administration): relatively short-lasting
antagonism of the actions of AII (AII; pithed rats): one of the most potent competitive antagonists of the actions of AII
agonistic actions of its own (AII; rat, in vivo): possessed agonistic actions of its own
